According to patent US20230406860A1, “HETEROCYCLIC SPIRO COMPOUNDS AND METHODS OF USE” (AMGEN INC., priority 2020, published 2023):
Like-named read-outs stand apart in the source and are kept apart here.

Columns and labels:
[1] = system: A549 (human lung carcinoma) cells; assay: Cell viability assay (CellTiter-Glo), A549; assay type: cell-based; settings: 72 h
Protocol: (§1) MIA PaCa-2 (human pancreatic carcinoma; ATCC CRL-1420) or A549 (human lung carcinoma; ATCC CCL-185) cells were cultured in RPMI 1640 medium containing 10% fetal bovine serum and 1× penicillin/streptomycin/L-glutamine. Cells were seeded in 384-well plates at a density of 1.67E+04 cells/mL and incubated at 37° C., 5% CO2, overnight. Serially-diluted compound or DMSO was added to the cells, and plates were incubated at 37° C., 5% CO2 for 72 h. Cell viability was measured using a CellTiter-Glo® Luminescent Cell Viability Assay kit (Promega) according to the manufacturer's protocol. The luminescence signal of treated samples was normalized to DMSO control, and data were analyzed using a 4-parameter logistic model to calculate IC50 values.

[2] = target: GDP-bound KRAS protein (aa 1-169), containing both G12C and C118A amino acid substitutions (Homo sapiens, UniProt P01116, C118A/G12C); assay: Coupled nucleotide exchange assay (SOS-mediated, AlphaScreen); assay type: biochemical
GDP-bound KRAS protein (aa 1-169), containing both G12C and C118A amino acid substitutions, sequence (P01116 1-169 isoform P01116-2 G12C/C118A): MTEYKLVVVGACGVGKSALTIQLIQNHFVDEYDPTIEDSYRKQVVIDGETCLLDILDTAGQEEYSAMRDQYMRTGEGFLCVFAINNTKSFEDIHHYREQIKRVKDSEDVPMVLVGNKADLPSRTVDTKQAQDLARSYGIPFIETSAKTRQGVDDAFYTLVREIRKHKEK
Protocol: Coupled Nucleotide Exchange Assay:
For all subsequent steps, DTT was added to the reaction buffer at a final concentration of 1 mM. […] The assay plates were then read on a plate reader measuring luminescence signal. Signal intensity of compound-containing wells were normalized to DMSO control, and data were analyzed using a 4-parameter logistic model to calculate IC50 values.

[3] = system: MIA PaCa-2 (human pancreatic carcinoma) cells; assay: Cell viability assay (CellTiter-Glo), MIA PaCa-2; assay type: cell-based; settings: 72 h
Protocol: as §1

[4] = system: extracellular signal-regulated kinase (ERK); settings: preclinical studies; cited from earlier work
[5] = 2 h compound pre-incubation, read-out: Avg 2 h Coupled exchange IC50

| SMILES | IC50 [1] | IC50 [2, 5] | IC50 [3] | IC50 ([2]; 20 h compound pre-incubation (values marked * in Table 6), read-out: Avg 20 h Coupled exchange IC50) | inhibition of ERK phosphorylation [4] |
| --- | --- | --- | --- | --- | --- |
| C=CC(=O)N1CC2(CCN(c3nc4c(c(N[C@H](Cc5nccs5)CC(C)C)n3)CCC(C)(C)C4)C2)C1 [Example 1-43, 1-(6-(7,7-dimethyl-4-(((2S)-4-methyl-1-(1,3-thiazol-2-yl)-2-pentanyl)amino)-5,6,7,8-tetrahydro-2-quinazolinyl)-2,6-diazaspiro[3.4]octan-2-yl)-2-propen-1-one] | 13.5 µM | 0.121 µM | 0.205 µM |  |  |
| C=CC(=O)N1CC2(CCN(c3nc4c(c(N[C@H](Cc5nnc(C)s5)CC(C)C)n3)CCC(C)(C)C4)C2)C1 [Example 1-51, 1-(6-(7,7-dimethyl-4-(((2S)-4-methyl-1-(5-methyl-1,3,4-thiadiazol-2-yl)-2-pentanyl)amino)-5,6,7,8-tetrahydro-2-quinazolinyl)-2,6-diazaspiro[3.4]octan-2-yl)-2-propen-1-one] | > 5 µM | 0.05 µM | 3.54 µM |  |  |
| C=CC(=O)N1CC2(CCN(c3nc(N[C@H](CC(=O)NC)CC(C)C)c4cc(C)ccc4n3)C2)C1 [Example 1-41, (3S)-N,5-dimethyl-3-((6-methyl-2-(2-(2-propenoyl)-2,6-diazaspiro[3.4]octan-6-yl)-4-quinazolinyl)amino)hexanamide] | > 25 µM | 0.779 µM | 1.23 µM |  |  |
| C=C(C(=O)N1CC2(CCN(c3nc(N[C@H](CC(=O)NC)CC(C)C)c4ccc(C)cc4n3)C2)C1)C(F)(F)F [Example 1-58, (3S)-N,5-dimethyl-3-((7-methyl-2-(2-(2-(trifluoromethyl)-2-propenoyl)-2,6-diazaspiro[3.4]octan-6-yl)-4-quinazolinyl)amino)hexanamide] | 13.5 µM | 0.403 µM | 1.84 µM |  |  |
| C=CC(=O)N1CC2(CCN(c3nc4c(c(N[C@@H](CC(C)C)Cn5cccn5)n3)CCC(C)(C)C4)C2)C1 [Example 1-46, 1-(6-(7,7-dimethyl-4-(((2S)-4-methyl-1-(1H-pyrazol-1-yl)-2-pentanyl)amino)-5,6,7,8-tetrahydro-2-quinazolinyl)-2,6-diazaspiro[3.4]octan-2-yl)-2-propen-1-one] | 20.2 µM | 0.162 µM | 0.122 µM |  |  |
| C=CC(=O)N1CC2(CCN(c3cc4ccccc4c(N[C@H](CC(=O)NC)CC(C)C)n3)C2)C1 [Example 1-6, (3S)-N,5-dimethyl-3-((3-(2-(2-propenoyl)-2,6-diazaspiro[3.4]octan-6-yl)-1-isoquinolinyl)amino)hexanamide] | > 25 µM |  | 8.21 µM | 0.424 µM |  |
| C=CC(=O)N1CC2(CCN(c3nc4c(c(N[C@H](CC(=O)NC)CC(C)C)n3)CC(C)CC4)C2)C1 (stereo partly drawn) [Example 1-33, (3S)-N,5-dimethyl-3-((6-methyl-2-(2-(2-propenoyl)-2,6-diazaspiro[3.4]octan-6-yl)-5,6,7,8-tetrahydro-4-quinazolinyl)amino)hexanamide] | > 25 µM | 0.446 µM | 0.35 µM |  |  |
| C=CC(=O)N1CC2(CCN(c3nc4c(c(N[C@@H](CC(C)C)Cn5cncn5)n3)CCC(C)(C)C4)C2)C1 [Example 1-45, 1-(6-(7,7-dimethyl-4-(((2S)-4-methyl-1-(1H-1,2,4-triazol-1-yl)-2-pentanyl)amino)-5,6,7,8-tetrahydro-2-quinazolinyl)-2,6-diazaspiro[3.4]octan-2-yl)-2-propen-1-one] | > 25 µM | 1.51 µM | 0.985 µM |  |  |
| C=CC(=O)N1CC2(CCN(c3nc4c(c(N[C@H](Cc5nc(C)no5)CC(C)C)n3)CCC(C)(C)C4)C2)C1 [Example 1-39, 1-(6-(7,7-dimethyl-4-(((2S)-4-methyl-1-(3-methyl-1,2,4-oxadiazol-5-yl)-2-pentanyl)amino)-5,6,7,8-tetrahydro-2-quinazolinyl)-2,6-diazaspiro[3.4]octan-2-yl)-2-propen-1-one] | > 25 µM | 0.685 µM | 0.79 µM |  |  |
| C=CC(=O)N1CC2(CCN(c3nc4c(c(N[C@H](CC(=O)NC)CC(C)C)n3)CCC(C(F)(F)F)C4)C2)C1 (stereo partly drawn) [Example 1-32, (3S)-N,5-dimethyl-3-((2-(2-(2-propenoyl)-2,6-diazaspiro[3.4]octan-6-yl)-7-(trifluoromethyl)-5,6,7,8-tetrahydro-4-quinazolinyl)amino)hexanamide] | > 25 µM | 0.057 µM | 0.024 µM |  |  |
| C=CC(=O)N1CCN(c2nc(=O)n(-c3c(C)ccnc3C(C)C)c3nc(-c4c(O)cccc4F)c(F)cc23)[C@@H](C)C1 [AMG 510] |  |  |  |  | inhibited nearly all detectable phosphorylation |
| C=CC(=O)N1CC2(CCN(c3nc4c(c(N[C@H](Cc5ncc[nH]5)CC(C)C)n3)CCC(C)(C)C4)C2)C1 [Example 1-54, 1-(6-(4-(((2S)-1-(1H-imidazol-2-yl)-4-methyl-2-pentanyl)amino)-7,7-dimethyl-5,6,7,8-tetrahydro-2-quinazolinyl)-2,6-diazaspiro[3.4]octan-2-yl)-2-propen-1-one] | > 5 µM | 0.049 µM | 1.32 µM |  |  |
| C=CC(=O)N1CC2(CCN(c3nc(N[C@H](CC(=O)NC)CC(C)C)c4ccc(C5CC5)cc4n3)C2)C1 [Example 1-40, (3S)-3-((7-cyclopropyl-2-(2-(2-propenoyl)-2,6-diazaspiro[3.4]octan-6-yl)-4-quinazolinyl)amino)-N,5-dimethylhexanamide] | 19 µM | 0.084 µM | 0.169 µM |  |  |
| C=CC(=O)N1CC2(CCN(c3nc4c(c(N[C@H](Cc5ccon5)CC(C)C)n3)CCC(C)(C)C4)C2)C1 [Example 1-48, 1-(6-(7,7-dimethyl-4-(((2S)-4-methyl-1-(1,2-oxazol-3-yl)-2-pentanyl)amino)-5,6,7,8-tetrahydro-2-quinazolinyl)-2,6-diazaspiro[3.4]octan-2-yl)-2-propen-1-one] | 15.8 µM | 0.053 µM | 0.049 µM |  |  |
| C=CC(=O)N1CC2(CCN(c3nc4c(c(N[C@H](CC5=NC(C)(C)C(=O)N5)CC(C)C)n3)CCCC4)C2)C1 [Example 1-12, 5,5-dimethyl-2-((2S)-4-methyl-2-((2-(2-(2-propenoyl)-2,6-diazaspiro[3.4]octan-6-yl)-5,6,7,8-tetrahydro-4-quinazolinyl)amino)pentyl)-3,5-dihydro-4H-imidazol-4-one] | > 25 µM | 3.93 µM | 10.5 µM |  |  |
| C=CC(=O)N1CC2(CCN(c3nc4c(c(N[C@H](CC(=O)NC)CC(C)C)n3)CCC4)C2)C1 [Example 1-4, (3S)-N,5-dimethyl-3-((2-(2-(2-propenoyl)-2,6-diazaspiro[3.4]octan-6-yl)-6,7-dihydro-5H-cyclopenta[d]pyrimidin-4-yl)amino)hexanamide] | > 5 µM | 2.37 µM | 2.59 µM |  |  |
